Among the data in US20050282818A1, “Ubiquitin ligase inhibitors” (Rigel Pharmaceuticals, Inc., priority 2004, published 2005) are IC50 values, retold here.

One assay deals with T1, ROC1/CUL1 (Homo sapiens, UniProt P62877+Q13616).
T1 construct: made in house
Put plainly: ROC1/CUL1 ubiquitin ligase assay (SCF assay). It counts as biochemical. On the procedure:
Inhibition of ubiquitin ligase activity of E1+E2+E3 was measured using the protocol as described in WO 01/75145 with E3 as the ROC1/CUL1, ROC1/CUL2, or ROC2/CUL5 complex.
The wells of nickel-substrate 96-well plates (Pierce Chemical) are blocked with 100 μl of 1 casein/phosphate buffered saline (PBS) for 1 hour at room temperature, then washed with 200 μl of PBST (0.1% Tween-20 in PBS) 3 times. To each well is added the following Flag-ubiquitin (see above) reaction solution: 62.5 mM Tris pH 7.5, 6.25 mm MgCl2, 0.75 mM DTT, 2.5 mM ATP, 2.5 mM NaF1, 2.5 nM Okadaic acid, 100 ng Flag-ubiquitin (made as described above).
The buffer solution is brought to a final volume of 80 μl with Milipore-filtered water, followed by the addition of 10 μl DMSO.
To the above solution is then added 10 μl of ubiquitination enzymes in 20 mM Tris buffer, pH 7.5, and 5% glycerol. E2-Ubch5c and E3-His ROC1/Cul1, ROC1/CUL2, and ROC2/CUL5 are made as described in WO 01/75145. E1 is obtained commercially (Affiniti Research Products, Exeter, U. K.). The following amounts of each enzyme are used for these assays: 5 ng/well of E1; […] E2; and 100 ng/well His-E3. Varying amounts of compounds according to the invention are added and the reaction allowed to proceed at room temperature for 1 hour.
Following the ubiquitination reaction, the wells are washed with 200 μl of PBST 3 times. For measurement of the enzyme-bound ubiquitin, 100 gel of Mouse anti-Flag (1:10,000) and anti-Mouse Ig-HRP (1:15, 000) in PBST are added to each well and allowed to incubate at room temperature for 1 hour. The wells are then washed with 200 μl of PBST 3 times, followed by the addition of 100 μl of luminol substrate (1/5 dilution). Luminescence for each well is then measured using a fluorimeter.
Table 2 below illustrates the inhibitory activity of the compounds of the invention determined by the TRAF6/Uev1A/Ubc13 assay as well as in the ICAM, APC and the ROC1/CUL1 Ubiquitin Ligase Assay (SCF Assay). The IC50 values were determined using a various concentrations of the compounds.

The next assay addresses T2, TRAF6/Uev1A/Ubc13 (Homo sapiens, UniProt Q9Y4K3).
T2 sequence (Q9Y4K3 1-522): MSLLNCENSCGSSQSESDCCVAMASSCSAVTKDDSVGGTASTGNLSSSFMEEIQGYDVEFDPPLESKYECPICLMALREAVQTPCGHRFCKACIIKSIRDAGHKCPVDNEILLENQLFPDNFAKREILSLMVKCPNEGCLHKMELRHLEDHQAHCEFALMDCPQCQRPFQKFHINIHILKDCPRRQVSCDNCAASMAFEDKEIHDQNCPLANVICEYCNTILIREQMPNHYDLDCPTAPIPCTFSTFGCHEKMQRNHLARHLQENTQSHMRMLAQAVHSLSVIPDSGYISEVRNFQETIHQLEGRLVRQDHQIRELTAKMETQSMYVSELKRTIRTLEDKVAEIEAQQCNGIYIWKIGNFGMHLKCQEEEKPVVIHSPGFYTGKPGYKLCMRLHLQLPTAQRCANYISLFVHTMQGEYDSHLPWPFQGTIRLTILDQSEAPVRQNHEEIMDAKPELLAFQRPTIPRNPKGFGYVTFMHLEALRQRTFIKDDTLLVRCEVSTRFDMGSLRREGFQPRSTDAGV
Put plainly: TRAF6/Uev1A/Ubc13 plate-based ubiquitin ligase assay. It counts as biochemical. Put shortly: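 Ligase activity was read as luminescence from anti-Flag/HRP detection of Flag-ubiquitin bound to casein-blocked Ni-plates alongside His-ubiquitin after a 1 h room-temperature reaction. Buffer: 62.5 mM Tris pH 7.5, 6.25 mM MgCl2, 1.0 mM DTT, 2 μM ATP; E1, Uev1a/Ubc13 and TRAF6 added last to start. IC50s derived across compound concentrations.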

A further assay has as its target APC11/APC2 (Homo sapiens, UniProt Q9NYG5+Q9UJX6). As to the kind of experiment: APC-11/APC-2 ligase assay (APC auto ubiquitination). It counts as biochemical. Particulars: APC assay. Put shortly:
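His-tagged APC was captured on nickel plates with human E1 (5 ng/well), UbcH5c (20 ng/well), APC (100 ng/well) and Flag-ubiquitin (100 ng/well) in a Tris pH 7.6 reaction buffer containing 2.5 mM ATP, for 1 hour at room temperature. Read-out was anti-Flag/HRP chemiluminescence. IC50 was set against a DMSO control, typically from 6 or 8 concentrations.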

Assay [1] concerns ICAM-1 expression in A549 cells. Put plainly: ICAM assay (IL-1 induced ICAM-1/CD54 expression in A549 cells). It counts as cell-based, human. Particulars: Homo sapiens, A549, ICAM assay. In short, it runs like this:
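A549 cells, 10,000/well, preincubated with compound 1 h at 37° C, then stimulated with IL-1 (4 μl of 25 ng/ml added) for 4 h. Surface ICAM-1 detected by anti-CD54 plus anti-mouse IgG staining for 1 h, luminescent read-out after PBS washes.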

Usually pIC50 stands for the IC50 on a negative log10 scale, so that one unit is a factor of ten. High values mean a small IC50, low ones a large IC50.

Structures are written as SMILES. pIC50: −log10 of the molar value.

Sequence of APC11/APC2 (Q9NYG5 whole entry): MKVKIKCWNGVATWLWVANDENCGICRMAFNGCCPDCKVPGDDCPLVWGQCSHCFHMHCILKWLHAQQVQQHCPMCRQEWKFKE
Sequence of APC11/APC2 (Q9UJX6 whole entry): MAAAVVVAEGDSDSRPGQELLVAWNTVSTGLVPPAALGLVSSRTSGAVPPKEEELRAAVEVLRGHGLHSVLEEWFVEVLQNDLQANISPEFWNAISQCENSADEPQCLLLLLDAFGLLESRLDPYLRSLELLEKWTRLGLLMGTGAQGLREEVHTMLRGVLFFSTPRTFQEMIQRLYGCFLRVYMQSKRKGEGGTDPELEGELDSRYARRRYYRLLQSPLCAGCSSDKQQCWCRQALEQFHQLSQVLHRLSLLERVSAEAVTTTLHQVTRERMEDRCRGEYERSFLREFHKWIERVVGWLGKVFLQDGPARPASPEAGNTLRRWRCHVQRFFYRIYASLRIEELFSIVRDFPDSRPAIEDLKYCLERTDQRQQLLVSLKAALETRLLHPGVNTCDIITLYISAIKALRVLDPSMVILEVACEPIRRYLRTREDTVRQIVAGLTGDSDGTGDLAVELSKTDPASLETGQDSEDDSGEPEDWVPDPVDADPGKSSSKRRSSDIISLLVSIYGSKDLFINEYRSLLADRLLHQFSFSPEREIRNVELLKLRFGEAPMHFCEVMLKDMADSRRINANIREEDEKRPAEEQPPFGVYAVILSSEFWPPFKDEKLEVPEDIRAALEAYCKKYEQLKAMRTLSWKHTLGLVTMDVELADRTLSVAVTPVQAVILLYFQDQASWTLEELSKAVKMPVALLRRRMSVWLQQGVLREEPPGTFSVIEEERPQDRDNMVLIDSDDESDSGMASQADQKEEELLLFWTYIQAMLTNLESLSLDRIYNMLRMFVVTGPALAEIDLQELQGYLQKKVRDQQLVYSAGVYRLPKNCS
T1 sequence (P62877 whole entry): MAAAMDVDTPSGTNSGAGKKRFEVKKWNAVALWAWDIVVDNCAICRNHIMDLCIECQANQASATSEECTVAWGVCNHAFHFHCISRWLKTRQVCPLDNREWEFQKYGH
T1 sequence (Q13616 whole entry): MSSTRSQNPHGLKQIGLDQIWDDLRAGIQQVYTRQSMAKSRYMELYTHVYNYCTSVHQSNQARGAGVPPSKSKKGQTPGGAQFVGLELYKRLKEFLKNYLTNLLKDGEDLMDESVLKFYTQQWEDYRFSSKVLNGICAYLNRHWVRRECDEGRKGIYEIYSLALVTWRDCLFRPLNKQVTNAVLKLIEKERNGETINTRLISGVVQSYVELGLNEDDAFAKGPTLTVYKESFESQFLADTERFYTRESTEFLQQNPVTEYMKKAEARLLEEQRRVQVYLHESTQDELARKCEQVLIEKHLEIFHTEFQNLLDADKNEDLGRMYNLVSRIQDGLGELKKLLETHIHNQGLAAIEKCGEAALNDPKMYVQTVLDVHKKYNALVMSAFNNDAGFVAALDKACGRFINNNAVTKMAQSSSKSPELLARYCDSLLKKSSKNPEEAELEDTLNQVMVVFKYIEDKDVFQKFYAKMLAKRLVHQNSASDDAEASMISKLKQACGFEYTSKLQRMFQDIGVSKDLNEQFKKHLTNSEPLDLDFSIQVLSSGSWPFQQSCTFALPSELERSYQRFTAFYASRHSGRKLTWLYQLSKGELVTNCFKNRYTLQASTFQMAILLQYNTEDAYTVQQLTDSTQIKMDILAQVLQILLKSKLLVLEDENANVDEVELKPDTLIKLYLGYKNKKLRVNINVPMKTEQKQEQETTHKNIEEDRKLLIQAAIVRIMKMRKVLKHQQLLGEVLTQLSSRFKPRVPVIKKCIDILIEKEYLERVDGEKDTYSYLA

For the molecule `CC(=O)OCCCNc1cc(Sc2nnc(C)s2)c2nonc2c1[N+](=O)[O-]` [compound 133, 3-({7-[(5-methyl-1,3,4-thiadiazol-2-yl)thio]-4-nitro-2,1,3-benzoxadiazol-5-yl}amino)propyl acetate], the pIC50 at ROC1/CUL1 and against TRAF6/Uev1A/Ubc13 was not above 4.70 in each case.
As to `CCCSc1cc(NCCCOC(C)=O)c([N+](=O)[O-])c2nonc12` [compound 134, 4-{[4-nitro-7-(propylthio)-2,1,3-benzoxadiazol-5-yl]amino}propyl acetate], the negative-log IC50 (pIC50) against ROC1/CUL1 and on TRAF6/Uev1A/Ubc13 was not above 4.70 each time.
Take `CC(=O)OCCCNc1cc(SC2CCCCC2)c2nonc2c1[N+](=O)[O-]` [compound 135, 3-{[7-(cyclohexylthio)-4-nitro-2,1,3-benzoxadiazol-5-yl]amino}propyl acetate]: the negative logarithm of the IC50 (pIC50) at ROC1/CUL1 and against TRAF6/Uev1A/Ubc13 was not above 4.70 in each case.
For `CC(=O)OCCCNc1cc(SCc2ccco2)c2nonc2c1[N+](=O)[O-]` [compound 136, 3-({7-[(2-furylmethyl)thio]-4-nitro-2,1,3-benzoxadiazol-5-yl}amino)propyl acetate], the pIC50 against ROC1/CUL1 and on TRAF6/Uev1A/Ubc13 was not above 4.70 in each case.
As to `CCOC(=O)CSc1cc(NCCCOC(C)=O)c([N+](=O)[O-])c2nonc12` [compound 137, ethyl [(6-{[3-(acetyloxy)propyl]amino}-7-nitro-2,1,3-benzoxadiazol-4-yl)thio]acetate], the pIC50 against ROC1/CUL1 and against TRAF6/Uev1A/Ubc13 was not above 4.70 in each case.
Consider `COc1ccc(-c2ccc([N+](=O)[O-])c3nonc23)cc1` [compound 466, 4-(4-methoxyphenyl)-7-nitro-2,1,3-benzoxadiazole], for which the negative logarithm of the IC50 (pIC50) is not above 4.70 against APC11/APC2, 4.70 to 6.00 on TRAF6/Uev1A/Ubc13 and 4.70 to 6.00 in assay [1].
For `O=[N+]([O-])c1ccc(-c2ccc3c(c2)OCO3)c2nonc12` [compound 467, 4-(benzodioxol-5-yl)-7-nitro-2,1,3-benzoxadiazole], the negative-log IC50 (pIC50) (against APC11/APC2; against TRAF6/Uev1A/Ubc13; in assay [1]) was 4.70 to 6.00 throughout.
Consider `Cc1ccc(-c2ccc([N+](=O)[O-])c3nonc23)cc1` [compound 468, 4-(4-methylphenyl)-7-nitro-2,1,3-benzoxadiazole], for which the negative logarithm of the IC50 (pIC50) against APC11/APC2 is 4.70 to 6.00; against TRAF6/Uev1A/Ubc13, not above 4.70; in assay [1], 4.70 to 6.00.
Turning to `O=[N+]([O-])c1ccc(-c2cccc3ccccc23)c2nonc12` [compound 469, 4-(naphthalen-1-yl)-7-nitro-2,1,3-benzoxadiazole], the pIC50 against APC11/APC2 is 4.70 to 6.00; on TRAF6/Uev1A/Ubc13, not above 4.70; in assay [1] it was 4.70 to 6.00.
`Cc1cccc(-c2ccc([N+](=O)[O-])c3nonc23)c1C` [compound 470, 4-(2,3-dimethylphenyl)-7-nitro-2,1,3-benzoxadiazole]: the negative-log IC50 (pIC50) on APC11/APC2 was 4.70 to 6.00; on TRAF6/Uev1A/Ubc13, not above 4.70; in assay [1], 4.70 to 6.00.
On to `Cc1ccc(C)c(-c2ccc([N+](=O)[O-])c3nonc23)c1` [compound 471, 4-(2,5-dimethylphenyl)-7-nitro-2,1,3-benzoxadiazole], for which the pIC50 on APC11/APC2 is 4.70 to 6.00; on TRAF6/Uev1A/Ubc13, not above 4.70; in assay [1] it was 4.70 to 6.00.
Regarding `Cc1ccc(-c2ccc([N+](=O)[O-])c3nonc23)cc1C` [compound 472, 4-(3,4-dimethylphenyl)-7-nitro-2,1,3-benzoxadiazole], the pIC50 (against APC11/APC2; against TRAF6/Uev1A/Ubc13; in assay [1]) was 4.70 to 6.00 in each case.
As to `Cc1cccc(-c2cc(C(F)(F)F)cc3nonc23)c1C` [compound 473, 4-(2,3-dimethylphenyl)-6-(trifluoromethyl)-2,1,3-benzoxadiazole], the pIC50 (against APC11/APC2; on TRAF6/Uev1A/Ubc13; in assay [1]) was not above 4.70 in each case.
For the molecule `FC(F)(F)c1cc(-c2ccccc2)c2nonc2c1` [compound 474, 4-phenyl-6-(trifluoromethyl)-2,1,3-benzoxadiazole], the negative-log IC50 (pIC50) (at APC11/APC2; against TRAF6/Uev1A/Ubc13; in assay [1]) was not above 4.70 in each case.
Take `FC(F)(F)c1cc(-c2ccc3c(c2)OCO3)c2nonc2c1` [compound 475, 4-(benzodioxol-5-yl)-6-(trifluoromethyl)-2,1,3-benzoxadiazole]: the negative logarithm of the IC50 (pIC50) (against APC11/APC2; at TRAF6/Uev1A/Ubc13; in assay [1]) was not above 4.70 in each case.
Turning to `Cc1ccc(-c2cc([N+](=O)[O-])cc3nonc23)cc1` [compound 476, 6-nitro-4-p-tolyl-2,1,3-benzoxadiazole], the negative logarithm of the IC50 (pIC50) (against APC11/APC2; at TRAF6/Uev1A/Ubc13; in assay [1]) was not above 4.70 each time.
Take `O=[N+]([O-])c1cc(-c2ccc(C(F)(F)F)cc2C(F)(F)F)c2nonc2c1` [compound 477, 4-(2,4-bis[trifluoromethyl]phenyl)-6-nitro-2,1,3-benzoxadiazole]: the pIC50 at APC11/APC2 is 4.70 to 6.00; at TRAF6/Uev1A/Ubc13, not above 4.70; in assay [1], 4.70 to 6.00.
In the case of `Cc1cccc(-c2cc([N+](=O)[O-])cc3nonc23)c1` [compound 478, 6-nitro-4-m-tolyl-2,1,3-benzoxadiazole], the pIC50 at APC11/APC2 is 4.70 to 6.00; against TRAF6/Uev1A/Ubc13 it was not above 4.70; in assay [1], 4.70 to 6.00.
In the case of `O=[N+]([O-])c1cc(-c2cc(F)cc(F)c2)c2nonc2c1` [compound 479, 4-(3,5-difluorophenyl)-6-nitro-2,1,3-benzoxadiazole], the negative logarithm of the IC50 (pIC50) (against APC11/APC2; on TRAF6/Uev1A/Ubc13; in assay [1]) was not above 4.70 each time.
Take `O=[N+]([O-])c1cc(-c2cccc(C(F)(F)F)c2)c2nonc2c1` [compound 480, 4-(3-[trifluoromethyl]phenyl)-6-nitro-2,1,3-benzoxadiazole]: the pIC50 is 4.70 to 6.00 on APC11/APC2, not above 4.70 against TRAF6/Uev1A/Ubc13 and 4.70 to 6.00 in assay [1].
Regarding `CC(C)(C)c1ccc(-c2cc([N+](=O)[O-])cc3nonc23)cc1` [compound 481, 4-(4-t-butylphenyl)-6-nitro-2,1,3-benzoxadiazole], the negative logarithm of the IC50 (pIC50) (against APC11/APC2; on TRAF6/Uev1A/Ubc13; in assay [1]) was 4.70 to 6.00 in each case.
On to `COc1ccccc1-c1cc([N+](=O)[O-])cc2nonc12` [compound 482, 4-(2-methoxyphenyl)-6-nitro-2,1,3-benzoxadiazole], for which the negative logarithm of the IC50 (pIC50) (on APC11/APC2; on TRAF6/Uev1A/Ubc13; in assay [1]) was not above 4.70 in each case.
On to `O=[N+]([O-])c1cc(-c2cccc3cccnc23)c2nonc2c1` [compound 483, 6-nitro-4-(quinolin-8-yl)-2,1,3-benzoxadiazole], for which the negative logarithm of the IC50 (pIC50) (at APC11/APC2; on TRAF6/Uev1A/Ubc13; in assay [1]) was not above 4.70 in each case.
Take `Cc1ccc(C)c(-c2cc([N+](=O)[O-])cc3nonc23)c1` [compound 484, 4-(2,5-dimethylphenyl)-6-nitro-2,1,3-benzoxadiazole]: the pIC50 (on APC11/APC2; at TRAF6/Uev1A/Ubc13; in assay [1]) was not above 4.70 in each case.
